{"source": "patent US6001850A", "about": "“Thienopyridine derivatives, their production and use” (Takeda Chemical Industries, Ltd., priority 1996, dated 1999)", "target": "T1, human GnRH receptor (Homo sapiens, UniProt P30968)", "T1 construct": "expressed in transfected cells; host or cells: CHO (Chinese Hamster Ovary) cells, membrane fraction", "T1 sequence (P30968 1-328)": "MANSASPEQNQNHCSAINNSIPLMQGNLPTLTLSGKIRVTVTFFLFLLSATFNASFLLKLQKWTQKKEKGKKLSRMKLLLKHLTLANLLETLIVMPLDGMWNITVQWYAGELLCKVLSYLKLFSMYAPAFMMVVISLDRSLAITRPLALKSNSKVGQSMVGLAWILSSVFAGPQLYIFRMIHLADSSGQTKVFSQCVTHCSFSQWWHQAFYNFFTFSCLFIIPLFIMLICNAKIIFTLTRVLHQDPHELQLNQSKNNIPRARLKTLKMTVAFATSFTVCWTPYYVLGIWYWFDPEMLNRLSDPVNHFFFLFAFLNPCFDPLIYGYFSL", "experiment": "Determination of inhibitory rate of 125I-leuprorelin binding (membrane fraction of CHO cells expressing human GnRH receptors)", "conditions": "CHO cell membrane expressing human GnRH receptors, 25° C., 60 minutes, Hill plot", "protocol": "(1)Preparation of ^125 I-leuprorelin:\nTen μl of 3×10^-4 M aqueous solution of leuprorelin and 10 μl of 0.01 mg/ml lactoperoxidase in 0.1M HEPES buffer (pH 7.4) were taken into a tube, to which was added 10 μl (37 MBq in 0.1 M HEPES buffer (pH7.4)) of an Na^125 I solution. The mixture was stirred, to which was added 10 μl of 0.001% H2O2, then reaction was allowed to proceed for 20 minutes at room temperature. To the reaction mixture was added 700 μl of a 0.05% TFA solution to cease the reaction. The product was purified by means of reversed phase HPLC. Conditions of HPLC are as follows. ^125 I-leuprorelin was eluted at a retention time of 26 to 27 minutes.\n(2) Preparation of membrane fraction of CHO (Chinese Hamster Ovary) cells containing human GnRH receptors\nCHO cells (10^9) expressing human GnRH receptors were suspended in a phosphate-buffered saline supplemented with 5 mM EDTA (ethylenediamine tetraacetate) (PBS-EDTA). […]\nThe reaction was allowed to proceed at 25° C. for 60 minutes. […] After completion of the filtration, radioactivity of the ^125 I-leuprorelin remaining on the filter paper was measured with a γ-counter.\nBy calculation of the following formula, the binding inhibitory rate (PMB, %) of each test compound was determined.\nTB: Maximum binding radioactivity.\nSB: Radioactivity obtained when a compound was added. […]", "note": "pIC50: −log10 of the molar value."}
{"smiles": "C=C(C)COc1ccc(-c2sc3c(c2CN(C)Cc2ccccc2)c(=O)c(C(=O)C(C)C)cn3Cc2c(F)cccc2F)cc1", "note": "[Example 3(4), 2-[4-(2-methyl-2-propen-1-yl-oxy)phenyl]-4,7-dihydro-7-(2,6-difluorobenzyl)-3-(N-benzyl-N-methylaminomethyl)-5-isobutyryl-4-oxothieno[2,3-b]pyridine]", "values": [{"measurement": "pIC50", "value": 8.00}]}
